The text below walks through data of patent US20170258786A1, “RBP4 ANTAGONISTS FOR THE TREATMENT OF AGE-RELATED MACULAR DEGENERATION AND STARGARDT DISEASE” (The Trustees of Columbia University in the City of New York, priority 2013, published 2017).

The target of data set [1] is T1, RBP4-TTR interaction (Homo sapiens, UniProt P02753).
T1 construct: host or cells: E. coli
The data set can be described thus: TR-FRET/HTRF assay for antagonists of retinol-induced RBP4-TTR interaction (Example 2, agonist and antagonist mode). The following applies: agonist mode, dose titration without retinol. It is filed as biochemical. An excerpt:
TR-FRET (Time-Resolved Fluorescence Resonance Energy Transfer) is an assay format that can be used in characterization of compounds affecting protein-protein interactions (31-33). […] In the presence of retinol, RBP4-TTR interaction induces FRET that can be registered as increased ratio of […] fluorescence signals. Binding of a desired RBP4 antagonist displaces retinol and induces hindrance for RBP4-TTR interaction resulting in the decreased FRET signal (FIG. 7).
The assay was developed using E. coli-expressed MBP-tagged RBP4 and commercially available TTR labeled directly with Eu3+ cryptate. In addition to MBP-RBP4 and Eu3+ (K)-TTR, a detector reagent anti-MBP-d2 was present in the mix. The assay was first optimized in the agonist mode; sensitivity and dynamic range of the assay was […] in respect to RBP4, TTR and detection reagent concentrations.
A general note: Time-resolved FRET reads energy transfer from a long-lived donor to a nearby acceptor.

For data set [2], the target named is T2, serum RBP4 (Mus musculus, UniProt Q00724).
T2 construct: There was approximately a 70% reduction in the serum RBP4 level in treated animals; from tissue; host or cells: mouse serum (Abca4-/- and wild-type, 129/SV x C57BL/6J)
The experiment in a line: Serum RBP4 measured by ELISA in Abca4-/- mice. Format: in vivo. On the procedure: The Abca4−/− mouse model manifests accelerated accumulation of lipofuscin in the RPE and is considered a pre-clinical efficacy model for a drug reducing lipofuscin accumulation.
(§1) Ten week-old Abca4 null mutant mice (129/SV×C57BL/6J) bred as previously described were used in the study. Abca4−/− (knockout) and Abca4+/+ (wild-type) mice were raised under 12 h on-off cyclic lighting with an in-cage illuminance of 30-50 lux. For long-term oral dosing A1120 was formulated into Purina 5035 rodent chow at Research Diets, Inc. (New Brunswick, N.J.) to ensure consistent 30 mg/kg daily oral dosing. Animals were administered the A1120-containing chow for 6 weeks.
Blood samples were collected from a tail vein at days 0, 21 and 42 of the A1120 dosing. Whole blood was drawn into a centrifuge tube and was let clot at room temperature for 30 min followed by centrifugation at 2,000×g for 15 minutes at +4′C to collect serum. Serum RBP4 was measured using the RBP4 (mouse/rat) dual ELISA kit (Enzo Life Sciences) following the manufacturer's instructions.

For data set [3], the system named is lipofuscin bisretinoids (A2E, A2-DHP-PE, atRAL di-PE). The experiment in a line: Lipofuscin bisretinoid levels in eyecups of Abca4-/- mice by HPLC. The following applies: Example 3, treated mice, 30 mg/kg oral. It is filed as in vivo, mouse. An excerpt:
The Abca4−/− mouse model manifests accelerated accumulation of lipofuscin in the RPE and is considered a pre-clinical efficacy model for a drug reducing lipofuscin accumulation. […] There was approximately a 70% reduction in the serum RBP4 level in treated animals (FIG. 11). Additionally, it was discovered that that the levels of A2E/isoA2E and other bisretinoids were reduced by approximately 50% in treated mice (FIG. 12).
Abca4/Abcr null mutant mice (albino) homozygous for Rpe65-Leu450 are bred genotyped and housed. […] An Alliance system (Waters, Corp, Milford, Mass.) equipped with 2695 Separation Module, 2996 Photodiode Array Detector, a 2475 Multi λ Fluorescence Detector and operating with Empower® software is used for HPLC analysis. […] HPLC quantification is carried out using the Empower® software to determine peak areas. […] Molar quantity per murine eye is determined using calibration curves constructed from known concentrations of purified external standards and by normalizing to the ratio of the HPLC injection volume (10 μL) versus total extract volume. […]
Following euthanasia, posterior eye cups were pooled and homogenized in PBS using a tissue grinder. […] Levels of bisretinoid were determined by reference to external standards of HPLC-purified compound.

In data set [4] the test system is ERG b-wave. The experiment in a line: ERG b-wave after photobleaching. Conditions: in vivo.
The nature of data set [5]: Signs of toxicity during 6 week chronic dosing of Abca4-/- mice. It is filed as in vivo. Conditions: 6 week-long chronic dosing, 30 mg/kg. The method, then: as §1
Administration of A1120 reduces the production of A2E, A2-DHP-PE, and atRAL di-PE in A1120-treated Abca4−/− mice in comparison to the vehicle-treated Abca4−/− animals by approximately 50%.

In data set [6] the test system is insulin sensitivity. The following applies: reference 12; cited from earlier work.
For data set [7], the system named is A2E production. Conditions: animal model of excessive bisretinoid accumulation, reference 11; cited from earlier work.
The mark [8] stands for this setting: Abca4-/- mice, 30 mg/kg daily oral in chow.

On to `O=C(O)c1ccccc1NC(=O)N1CCC(c2ccccc2C(F)(F)F)CC1` [Compound 1, 2(4-(2-(trifluoromethyl)phenyl)piperidine-1-carboxamido)benzoic acid], for which the “Induction of RBP4-TTR interaction” value in data set [1] is listed as “did not induce RBP4-TTR interaction”. Moreover, in data set [2] (setting [8]), the “Serum RBP4 reduction at Week 3 (Day 21) compared with Day 0” value is listed as 64% and the “Serum RBP4 reduction at Week 6 (Day 42) compared with Day 0” value worked out at 75%. Also, the “Reduction in serum RBP4 level” value in data set [2] (orally dosed for 3 weeks at 30 mg/kg, treated animals) is around 70%. Also, in data set [3], the “Levels of A2-DHP-PE and atRAL di-PE” value is given as “reduced”; the “Reduction of levels of A2E/isoA2E and other bisretinoids” value is reported as “approximately 50%”. In addition, the “Effect on ERG b-wave after photobleaching” value in data set [4] is reported as “does not reduce ERG b-wave”. Besides, the “Signs of compound toxicity such as weight loss or reduction in food consumption” value in data set [5] was “did not note any obvious signs of compound toxicity”. In addition, the “Insulin sensitivity in mouse diabetes models” value in data set [6] is “did not improve insulin sensitivity”.

As to `CC1=C(/C=C/C(C)=C/C=C/C(C)=C/C(=O)Nc2ccc(O)cc2)C(C)(C)CCC1` [fenretinide, N-(4-hydroxy-phenyl)retinamide], the “Induction of RBP4-TTR interaction” value in data set [1] is reported as “did not induce RBP4-TTR interaction”. In data set [7], the “A2E production in Abca4-/- mice” value is “reduced A2E production”.
